These results are taken from US20230382891A1, “GLUTAMINYL-PEPTIDE CYCLOTRANSFERASE LIKE (QPCTL) PROTEIN INHIBITORS AND USES THEREOF” (Blacksmith Medicines, Inc., priority 2020, published 2023).

Bounds are passed on as bounds.

Glutaminyl-peptide cyclotransferase like (QPCTL) protein, sequence (Q9NXS2 whole entry, species assumed): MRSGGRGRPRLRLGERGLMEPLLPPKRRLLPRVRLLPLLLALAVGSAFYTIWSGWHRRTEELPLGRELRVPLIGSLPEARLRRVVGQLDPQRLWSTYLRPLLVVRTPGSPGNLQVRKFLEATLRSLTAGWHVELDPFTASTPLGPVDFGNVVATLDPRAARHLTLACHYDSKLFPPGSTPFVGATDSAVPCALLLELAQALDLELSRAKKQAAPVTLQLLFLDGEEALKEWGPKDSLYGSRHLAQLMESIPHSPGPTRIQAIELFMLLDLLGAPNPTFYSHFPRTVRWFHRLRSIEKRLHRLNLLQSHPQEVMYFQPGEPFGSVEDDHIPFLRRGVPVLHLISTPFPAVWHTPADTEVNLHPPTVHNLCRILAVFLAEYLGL

The assay deals with Glutaminyl-peptide cyclotransferase like (QPCTL) protein (Homo sapiens, UniProt Q9NXS2). Description: Glutaminyl-peptide cyclotransferase like (QPCTL) protein inhibition assay (Gln-AMC substrate, pGAPase coupled). Type of assay: biochemical. The note with it: 50 mM MES pH 7.0, 10 μM ZnCl2, 0.2 U/mL pGAPase, Gln-AMC at its Km, 30° C. Here is the method:
Example B-1: Glutaminyl-Peptide Cyclotransferase Like (OPCTL) Protein Inhibition Assay
Glutaminyl-peptide cyclotransferase like (QPCTL) protein activity was determined using L-glutamine-7-amido-4-methylcoumarin (Gln-AMC, Santa Cruz Biotechnology) as a substrate. A second enzyme, pyroglutamyl aminopeptidase (pGAPase, Qiagen), was included in the assay to release the AMC fluorophore following cyclization; appropriate controls were run to ensure that inhibitors were not inhibiting the auxiliary enzyme. Inhibitors were added at various concentrations to buffer (final concentrations: 50 mM MES pH 7.0, 10 μM ZnCl2, 0.2 U/mL pGAPase, Gln-AMC at its Km) and the reaction initiated by the addition of QPCTL. Reactions became linear after a 10-minute equilibration period at 30° C. (to accumulate pGlu-AMC intermediate), and were monitored for an additional 10 minutes.
Table A provides QPCTL inhibitory activity of illustrative compounds, where A means IC50 is <1 μM; B means IC50 is between 1 to 10 μM; C means IC50 is between 10 to 50 PM; D means IC50 is >50 PM.
With `c1ccc(N2CCC(C3CCCn4cnnc43)CC2)nc1` (stereo not shown) [Compound 27, 8-(1-(pyridin-2-yl)piperidin-4-yl)-5,6,7,8-tetrahydro-[1,2,4]triazolo[4,3-a]pyridine], the “QPCTL IC50” value is “C (C means IC50 is between 10 to 50 PM)”.

For the compound `Nc1nnc(C2CCN(c3ncccc3-c3ccc(F)nc3)CC2)[nH]1` [Compound 1, 5-(1-(6′-fluoro-[3,3′-bipyridin]-2-yl)piperidin-4-yl)-4H-1,2,4-triazol-3-amine], the half-maximal inhibitory concentration (IC50) – broadly, the concentration that inhibits the measured activity by half – is less than 1000 nM.

On to `Nc1nnc2c(C3=CCN(c4ncccc4-c4ccc(F)nc4)CC3)cccn12` [Compound 15, 8-(6″-fluoro-3,6-dihydro-2H-[1,2′:3′,3″-terpyridin]-4-yl)-[1,2,4]triazolo[4,3-a]pyridin-3-amine], for which the half-inhibitory concentration (IC50) was less than 1000 nM.

For the compound `Fc1ccc(-c2cccnc2N2CC=C(c3cccn4cnnc34)CC2)cn1` [Compound 18, 8-(6″-fluoro-3,6-dihydro-2H-[1,2′:3′,3″-terpyridin]-4-yl)-[1,2,4]triazolo[4,3-a]pyridine], the IC50 was 1000 to 10000 nM.

The compound `CNc1nnc(C2CCN(c3ncccc3-c3ccc(F)nc3)CC2)[nH]1` [Compound 7, 5-(1-(6′-fluoro-[3,3′-bipyridin]-2-yl)piperidin-4-yl)-N-methyl-4H-1,2,4-triazol-3-amine] returned an IC50 of less than 1000 nM.

As to `Fc1ccc(CN2CC=C(c3cccn4cnnc34)CC2)cn1` [Compound 21, 8-(1-((6-fluoropyridin-3-yl)methyl)-1,2,3,6-tetrahydropyridin-4-yl)-[1,2,4]triazolo[4,3-a]pyridine], the “QPCTL IC50” value is recorded as “D (D means IC50 is >50 PM)”.

Take `Cn1c(N)nnc1C1CCN(c2nc(F)ccc2-c2ccc(F)nc2)CC1` [Compound 5, 5-(1-(6,6′-difluoro-[3,3′-bipyridin]-2-yl)piperidin-4-yl)-4-methyl-4H-1,2,4-triazol-3-amine]: the half-inhibitory concentration (IC50) is less than 1000 nM.

Regarding `Cc1c(N)nnn1C1CCN(c2ncccc2-c2ccc(F)nc2)CC1` [Compound 10, 1-(1-(6′-fluoro-[3,3′-bipyridin]-2-yl)piperidin-4-yl)-5-methyl-1H-1,2,3-triazol-4-amine], the IC50 is less than 1000 nM.

`C1=C(c2cccn3cncc23)CCN(c2ccccn2)C1` [Compound 24, 8-(3,6-dihydro-2H-[1,2′-bipyridin]-4-yl)imidazo[1,5-a]pyridine] showed a half-inhibitory concentration (IC50) of 1000 to 10000 nM.

As for “1-(1-(6′-chloro-[3,3′-bipyridin]-2-yl)piperidin-4-yl)-1H-1,2,3-triazol-4-amine [Compound 3]”, the IC50 was less than 1000 nM.

Consider `COc1ccc(-c2cccnc2N2CC=C(c3cccn4cnnc34)CC2)cn1` [Compound 14, 8-(6″-methoxy-3,6-dihydro-2H-[1,2′:3′,3″-terpyridin]-4-yl)-[1,2,4]triazolo[4,3-a]pyridine], for which the IC50 was 1000 to 10000 nM.

Take `Nc1nnc2c(C3CCN(c4ncccc4-c4ccc(F)nc4)CC3)cccn12` [Compound 17, 8-(1-(6′-fluoro-[3,3′-bipyridin]-2-yl)piperidin-4-yl)-[1,2,4]triazolo[4,3-a]pyridin-3-amine]: the IC50 is less than 1000 nM.

For the compound `OCCn1cc(C2CN(c3ccccn3)CC=C2c2cccn3cnnc23)cn1` (stereo not shown) [Compound 26, 2-(4-(4-([1,2,4]triazolo[4,3-a]pyridin-8-yl)-3,6-dihydro-2H-[1,2′-bipyridin]-3-yl)-1H-pyrazol-1-yl)ethan-1-ol], the IC50 lay in the range of 1000 to 10000 nM.

Take `COCCOc1ccc(-c2cccnc2N2CC=C(c3cccn4cnnc34)CC2)cn1` [Compound 19, 8-(6″-(2-methoxyethoxy)-3,6-dihydro-2H-[1,2′:3′,3″-terpyridin]-4-yl)-[1,2,4]triazolo[4,3-a]pyridine]: the IC50 fell in the range of 1000 to 10000 nM.

For `COc1ccc(C2=CCCN(CC#Cc3cccn4cnnc34)C2)cc1OC` [Compound 23, 8-(3-(5-(3,4-dimethoxyphenyl)-3,6-dihydropyridin-1(2H)-yl)prop-1-yn-1-yl)-[1,2,4]triazolo[4,3-a]pyridine], the “QPCTL IC50” value is “C (C means IC50 is between 10 to 50 PM)”.

Consider `Cc1ccc(-c2ccc(F)nc2)c(N2CCC(c3nnc(N)n3C)CC2)n1` [Compound 4, 5-(1-(6′-fluoro-6-methyl-[3,3′-bipyridin]-2-yl)piperidin-4-yl)-4-methyl-4H-1,2,4-triazol-3-amine], for which the IC50 was less than 1000 nM.

Take `Cn1c(N)nnc1C1CCN(c2ncccc2-c2ccc(F)nc2)CC1` [Compound 6, 5-(1-(6′-fluoro-[3,3′-bipyridin]-2-yl)piperidin-4-yl)-4-methyl-4H-1,2,4-triazol-3-amine]: the half-maximal inhibitory concentration (IC50) was less than 1000 nM.

Compound `Nc1ccc(-c2cccnc2N2CC=C(c3cccn4cnnc34)CC2)cn1` [Compound 13, 4-([1,2,4]triazolo[4,3-a]pyridin-8-yl)-3,6-dihydro-2H-[1,2′:3′,3″-terpyridin]-6″-amine] gave a concentration for half-maximal inhibition (IC50) of 1000 to 10000 nM.

As for `Fc1ccc(-c2cccnc2N2CC=C(c3cccn4cncc34)CC2)cn1` [Compound 20, 8-(6″-fluoro-3,6-dihydro-2H-[1,2′:3′,3″-terpyridin]-4-yl)imidazo[1,5-a]pyridine], the IC50 is 1000 to 10000 nM.

For the compound `COc1ccc(CN2CCC=C(c3cccn4cnnc34)C2)cc1OC` [Compound 25, 8-(1-(3,4-dimethoxybenzyl)-1,2,5,6-tetrahydropyridin-3-yl)-[1,2,4]triazolo[4,3-a]pyridine], the “QPCTL IC50” value was “D (D means IC50 is >50 PM)”.

As to `Nc1nnc(C2CCN(c3ncccc3-c3ccc(F)nc3)CC2)o1` [Compound 2, 5-(1-(6′-fluoro-[3,3′-bipyridin]-2-yl)piperidin-4-yl)-1,3,4-oxadiazol-2-amine], the half-maximal inhibitory concentration (IC50) is less than 1000 nM.

The compound `N#Cc1ccc(-c2cccnc2N2CC=C(c3cccn4cnnc34)CC2)cn1` [Compound 12, 4-([1,2,4]triazolo[4,3-a]pyridin-8-yl)-3,6-dihydro-2H-[1,2′:3′,3″-terpyridine]-6″-carbonitrile] returned an IC50 of 1000 to 10000 nM.

As to `C1=C(c2cccn3cnnc23)CCN(c2ccccn2)C1` [Compound 22, 8-(3,6-dihydro-2H-[1,2′-bipyridin]-4-yl)-[1,2,4]triazolo[4,3-a]pyridine], the “QPCTL IC50” value is “C (C means IC50 is between 10 to 50 PM)”.

`C1=C(c2cccn3cnnc23)CCN(c2ncccc2-c2cncnc2)C1` [Compound 16, 8-(3′-(pyrimidin-5-yl)-3,6-dihydro-2H-[1,2′-bipyridin]-4-yl)-[1,2,4]triazolo[4,3-a]pyridine]: the “QPCTL IC50” value is listed as “C (C means IC50 is between 10 to 50 PM)”.

In the case of `Fc1ccc(-c2cccnc2N2CC=C(c3cccn4cnnc34)CC2)cc1F` [Compound 11, 8-(3′-(3,4-difluorophenyl)-3,6-dihydro-2H-[1,2′-bipyridin]-4-yl)-[1,2,4]triazolo[4,3-a]pyridine], the “QPCTL IC50” value is on record as “C (C means IC50 is between 10 to 50 PM)”.
